Data reported in publication PMC6749586, “Design, Synthesis, and Anticancer Effect Studies of Iridium(III) Polypyridyl Complexes against SGC-7901 Cells” (Molecules, 2019).

Key:
HeLa cells = assay: MTT cytotoxicity assay, HeLa; assay type: cell-based, human; settings: 48 h, read-out: IC50 toward HeLa
Description: (§1) The lung carcinoma cell line A549, the cervical cancer cell line HeLa, the esophageal cancer cell line Eca-109, and the human hepatocellular carcinoma cell line BEL-7402 were purchased from the cell bank of the Cell Institute of Sinica Academia Shanghai (Shanghai, China). The gastric adenocarcinoma cell line SGC-7901, the hepatocellular carcinoma cell line HepG2, and the mouse embryonic fibroblast cell line NIH 3T3 were obtained from the Experimental Animal Center of Sun Yat-Sen University (Guangzhou, China). The BEL-7402 and SGC-7901 cell lines were cultured in Roswell Park Memorial Institute Medium (RPMI-1640); and A549, Eca-109, HepG2, and NIH 3T3 cells were grown in Dulbecco’s Modified Eagle’s Medium (DMEM), including 10% fetal bovine serum (FBS), 100 units mL^−1 penicillin/streptomycin mixture, and 2.0 g/L of NaHCO3. Cell passage experiments were performed with trypsin every 2 days to maintain exponential growth. All cells were cultured until they reached logarithmic growth phase, unless specifically noted.
(§2) Cell cytotoxicity following treatment with the iridium(III) complexes was detected by MTT assay. The cells were seeded into 96-well micro-assay culture plates (1 × 10^4 cells per well) and grown overnight in a 5% CO2 incubator at 37 °C. Then, the cell lines were treated with gradient concentrations of the complexes 1–3. After treatment for 48 h, MTT solution (5 mg mL^−1, […]) dissolved in phosphate buffer was added to each well and the cells were further cultured for 4 h. Upon completion of incubation, the solvent was removed and 100 µL/well of buffer containing dimethylformamide (50%) and sodium dodecyl sulfate (20%) was added to dissolve the produced formazan. The absorbance of each well was measured with a microplate reader at a wavelength of 490 nm. The IC50 values were determined from the plots of viability versus concentration used to treat the cells. Three independent experiments were performed to obtain the mean values.

NIH 3T3 cells = assay: MTT cytotoxicity assay, normal NIH 3T3; assay type: cell-based, mouse; settings: 48 h, read-out: IC50 toward NIH 3T3
Description: as §1, §2

SGC-7901 cells [1] = assay: Intracellular ROS measurement with DCFH-DA; assay type: cell-based, human; settings: 4.0 µM 1, 15.0 µM 2, 15.0 µM 3, Rosup positive control, 24 h, versus control
Protocol: 2,7-Dichloro-dihydrofluorescein diacetate (DCFH-DA) was used as a fluorescence probe to investigate the changes in intracellular ROS levels. SGC-7901 cells were placed in a 12-well plate at a density of 1.5 × 10^5 per well. After 24 h, the medium in the wells was replaced with a medium containing the corresponding concentration of 1–3, and the cells were incubated for 24 h. Finally, the cell pellets were suspended in PBS and imaged under the ImageXpress Micro XLS system (MD company, US). The DCF fluorescence intensity was calculated by flow cytometry.

SGC-7901 cells [2] = assay: Mitochondrial membrane potential assay with JC-1; assay type: cell-based, human; settings: 24 h; for Ratio of red/green JC-1 fluorescence intensity (R), complex + NAC: 4.0 µM 1, 15.0 µM 2, 15.0 µM 3, in the presence of NAC; for Ratio of red/green JC-1 fluorescence intensity (R): substance alone: 4.0 µM 1, 15.0 µM 2, 15.0 µM 3, CCCP or NAC, control 12.03
Protocol: The SGC-7901 cells were seeded into a 12-well plate at a density of 1.5 × 10^5 cells per well and incubated to attach at 37 °C in 5% CO2. Overnight, the cells were treated with complexes 1–3 for 24 h. CCCP was used as a positive control. Then, the cells were incubated with JC-1 for 30 min at room temperature, after which the remaining dye was washed away with PBS. The samples were then observed under the ImageXpress Micro XLS system and flow cytometry was employed to quantify the fluorescence intensity.

SGC-7901 cells [3] = assay: Colony-forming assay; assay type: cell-based, human; settings: 4.0 µM 1, 15.0 µM 2, 15.0 µM 3, 8 days
Protocol: The SGC-7901 cells were seeded at a cell density of 500 cells per well in a 6-well plate. After 24 h, an equal amount of solvent or iridium complexes was added into the medium for another 24 h. Then, the medium containing the tested complexes was removed and replaced with fresh medium. The number of the colonies was counted on the 8th day after seeding and then fixed with paraformaldehyde for 20 min. The colonies were photographed under an inverted microscope after staining with 0.1% (w/v) crystal violet for 20 min. Each experiment was carried out in triplicate.

SGC-7901 cells [4] = assay: Intracellular Ca2+ level with Fluo-3AM; assay type: cell-based, human; settings: 4.0 µM 1, 15.0 µM 2, 15.0 µM 3, 24 h; controls weak green fluorescence
Protocol: SGC-7901 cells in the logarithmic growth phase were seeded in 12-well microassay culture plates (1.5 × 10^5 cells per well), incubated overnight, and then treated with different concentrations of the tested complexes (4.0 µM 1, 15.0 μM 2, and 15.0 μM 3) for 24 h. The control wells were prepared by the addition of solvent (10 μL PBS buffer). The concentration of Ca^2+ was detected using the Ca^2+-sensitive fluorescent probe Fluo-3AM. Upon completion of incubation, the medium was removed and the wells were washed twice with PBS buffer, following which the cells were dyed with Fluo-3AM for 30 min. After dyeing, the cells were washed again and stained with Hoechst 33258 (10 μg mL^−1) for 30 min. The remaining dye was removed and the cells were observed under an ImageXpress Micro XLS system.

SGC-7901 cells [5] = assay: Western blot analysis of apoptosis-related proteins; assay type: cell-based, human; settings: 4.0 µM 1, 15.0 µM 2, 15.0 µM 3, 24 h
Protocol: The SGC-7901 cancer cells were seeded on 6-well plates at a density of 5 × 10^5 cells per well. Following incubation for 24 h, the cells were treated with 1–3 for 24 h. Next, total proteins were extracted from the cells after incubation in lysis radioimmunoprecipitation assay (RIPA) buffer for 30 min on ice. After centrifugation (13,000× g, 4 °C, 20 min) of the cell suspension, the supernatants were obtained. Protein concentrations were determined using a BCA (bicinchoninic acid) protein assay kit. Equal amounts of denatured proteins were fractionated by electrophoresis on SDS-polyacrylamide gel at 50 V for 3 h. A pre-stained color protein marker was used as the internal reference. The gels were then segmented, transferred to polyvinylidene fluoride (PVDF) membranes (Millipore, Burlington, MA, USA) and then blocked with 5% non-fat milk in TBST buffer (150 mM NaCl, 20 mM Tris-HCl, 0.05% Tween 20, pH = 8.0) for 2 h. […] Further hybridization with the secondary antibodies (diluted 1:5000) conjugated with horseradish peroxidase was performed after washing the membranes three times in TBST buffer with shaking. Each protein was visualized using an enhanced chemiluminescence (ECL) detection kit, in accordance with the manufacturer’s instructions. Finally, the blot images were photographed by a computerized imaging system.

Row | Compound | IC50 (HeLa cells) [µM] | IC50 (NIH 3T3 cells) [µM] | Intracellular ROS level, DCF green fluorescence (imaging) (SGC-7901 cells [1]) | Ratio of red/green JC-1 fluorescence intensity (R), complex + NAC (SGC-7901 cells [2]) | Ratio of red/green JC-1 fluorescence intensity (R) (SGC-7901 cells [2]) | Inhibition of colony formation (SGC-7901 cells [3]) | Intracellular Ca2+ level, Fluo-3AM fluorescence (SGC-7901 cells [4]) | Expression level of Bax (SGC-7901 cells [5]) | Expression level of Bcl-2 (SGC-7901 cells [5]) | Expression level of Bcl-xL (SGC-7901 cells [5]) | Expression level of phosphorylated p53 (P-p53) (SGC-7901 cells [5])
1 | F[P-](F)(F)(F)(F)F.O=[N+]([O-])c1cc2ccc[n+]3c2c2c1ccc[n+]2[Ir-5]312([c]3ccccc3-c3cccc[n+]31)[c]1ccccc1-c1cccc[n+]12 [Complex 1, [Ir(Hppy)2(NP)]PF6] | 16.3 ± 0.9 | 14.6 ± 1.3 | increased green fluorescence intensity | 1.86 | 0.43 | significant inhibition of colony formation | brilliant green fluorescence | increased | dramatically decreased | dramatically decreased | dramatically decreased
2 | F[P-](F)(F)(F)(F)F.Nc1c([N+](=O)[O-])c2cccnc2c2ncccc12.[Ir+3].[c-]1ccccc1-c1ccccn1.[c-]1ccccc1-c1ccccn1 [Complex 2, [Ir(Hppy)2(NAP)]PF6] | 52.6 ± 1.4 | 23 ± 1.5 | increased green fluorescence intensity | 17.99 | 7.12 | significant inhibition of colony formation | brilliant green fluorescence | increased | dramatically decreased | dramatically decreased | dramatically decreased
3 | F[P-](F)(F)(F)(F)F.Nc1c(N)c2cccnc2c2ncccc12.[Ir+3].[c-]1ccccc1-c1ccccn1.[c-]1ccccc1-c1ccccn1 [Complex 3, [Ir(Hppy)2(DAP)]PF6] | 59.7 ± 6.8 | > 100 | increased green fluorescence intensity |  | 1.49 | significant inhibition of colony formation | brilliant green fluorescence | increased | dramatically decreased | dramatically decreased | dramatically decreased
